Data published in patent US5187171A (G. D. Searle & Co., priority 1989, dated 1993).

Experiments:
[1] = tested on: mentally disturbed patients; details: 500 mg per day, cited from earlier work
[2] = target: T1, NMDA receptor-associated glycine recognition site ("Glycine B receptor") (Rattus norvegicus, UniProt P35439); assay: TCP modulation assay (stimulation of [3H]TCP binding); assay type: biochemical; details: basal [3H]TCP binding
T1 construct: synaptic plasma membranes (SPM) prepared from rat forebrain; from tissue; host or cells: rat forebrain (male Sprague-Dawley, animals from Sasco) synaptic plasma membranes, Triton X-100 washed
Experimental: [^3 H]TCP binding was performed using Triton X-100 washed synaptic plasma membranes (SPM) prepared from rat forebrain (30-45 day old, male Sprague-Dawley; Sasco, St. Charles, Mo.) as described previously [J. W. Thomas, W. F. Hood, J. B. Monahan, P. C. Contreras and T. L. O'Donohue, Brain Res., 442, 396-398 (1988)]. […] The samples were then filtered through glass fiber filters (Schleicher and Schuell #32) which were pretreated with 0.05% (v/v) polyethylenimine. The filters were washed and the radioactivity quantitated by liquid scintillation spectrometry. […] The EC50 values for the stimulation of [^3 H]TCP binding were determined using a four parameter logistic regression analysis.

N[C@@H]1CONC1=O [D-cycloserine, 4-amino-3-isoxazolidone]
Clinical response ([1]; mentally disturbed patients): improvements in depression, insomnia, anexoria or tension were found for some patients
Clinical response of patients suffering from severe neurosis or psychosis [1]: responded poorly
Maximal stimulation of [3H]TCP binding compared with glycine and D-serine [2]: significantly less than that produced by both glycine and D-serine
